{"source": "patent US20260070945A1", "about": "“MACROCYCLIC IMMUNOMODULATORS” (Bristol-Myers Squibb Company, priority 2022, published 2026)", "note": "pIC50: −log10 of the molar value. *1 amine or outer side, *2 acyl side, *3 side chain or, on linkers, in order; H or OH if unused. Where a SMILES comes first, the peptide text is derived from it. Bridges are numbered along the chain shown (N, C = ends). [ ]: non-standard residue; d: D form. The star is where a group is joined. ξ: configuration not given here. Phe(3-CF3) = N[C@@H](Cc1cccc(C(F)(F)F)c1)C(=O)O; Phe(4-CF3) = N[C@@H](Cc1ccc(C(F)(F)F)cc1)C(=O)O; Phe(4-COOH) = N[C@@H](Cc1ccc(C(=O)O)cc1)C(=O)O; Bip = N[C@@H](Cc1ccc(-c2ccccc2)cc1)C(=O)O; Phe(3-F) = N[C@@H](Cc1cccc(F)c1)C(=O)O; Phe(3-Me) = Cc1cccc(C[C@H](N)C(=O)O)c1; γGlu = O=C(O)[C@H](CCC(=O)[*:2])N[*:1]; NH(CH2)12COOH = O=C(O)CCCCCCCCCCCCN*; NMeAEEA = CN(CCOCCOCC(=O)[*:2])[*:1]; Val(3-OH) = CC(C)(O)[C@H](N)C(=O)O; aIle = CC[C@@H](C)[C@H](N)C(=O)O; 4Pal = N[C@@H](Cc1ccncc1)C(=O)O; Cha = N[C@@H](CC1CCCCC1)C(=O)O; Cit = NC(=O)NCCC[C@H](N)C(=O)O; Ile(3ξ) = CCC(C)[C@H](N)C(=O)O; Thr(3ξ) = CC(O)[C@H](N)C(=O)O; Carboxymethyl = O=C(O)C*; NMeA = CN[C@@H](C)C(=O)O; Orn = NCCC[C@H](N)C(=O)O; Aun = NCCCCCCCCCCC(=O)O; Dab = NCC[C@H](N)C(=O)O; Dap = NC[C@H](N)C(=O)O; AEEA = NCCOCCOCC(=O)O", "data": [{"biological_target": "T1, PD-1/PD-L1 interaction (PE-labeled human PD-L1-Ig binding to Jurkat cell line over-expressing human PD-1) (Homo sapiens, UniProt Q15116)", "T1 construct": "expressed in transfected cells; host or cells: Jurkat", "T1 sequence (Q15116 25-288)": "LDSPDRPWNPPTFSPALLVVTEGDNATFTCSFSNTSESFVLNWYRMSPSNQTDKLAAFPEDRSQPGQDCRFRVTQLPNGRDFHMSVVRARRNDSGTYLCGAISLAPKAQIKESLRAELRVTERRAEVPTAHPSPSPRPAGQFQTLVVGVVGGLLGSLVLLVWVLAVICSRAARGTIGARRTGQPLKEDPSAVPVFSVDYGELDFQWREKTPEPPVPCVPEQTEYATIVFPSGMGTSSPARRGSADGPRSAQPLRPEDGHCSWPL", "test": "Jurkat-PD-1 Cell Binding High-Content Screening Assay (CBA)", "settings": "Jurkat-hPD-1 cells, PE-labeled PD-L1-Ig 20 nM final; read-out: Jurkat HPD1 PDL1 IC50", "how_it_was_run": "(§1)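 Binding of 20 nM (final) PE-tagged PD-L1-Ig to compound-pretreated Jurkat-hPD-1 cells was measured by high-content imaging after 1 h. Pretreatment ran 2 h at 37 °C in DMEM with 10% fetal calf serum.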", "values": [{"smiles": "CC(C)C[C@H]1NC(=O)[C@H](C)N(C)C(=O)[C@H](Cc2ccc(OCC(=O)O)cc2)NC(=O)[C@H](Cc2ccc(-c3ccccc3)cc2)NC(=O)[C@H](Cc2ccc(OCC(=O)O)cc2)NC(=O)[C@H](Cc2c[nH]c3ccccc23)NC(=O)[C@H](CC(=O)O)NC(=O)[C@H](Cc2ccc(OCC(=O)O)cc2)NC(=O)[C@H]([C@@H](C)O)NC(=O)CSC[C@@H](C(=O)N[C@@H](CCN)C(=O)NCCOCCOCC(=O)NCCCCCCCCCCC(=O)O)NC(=O)[C@H](CC(N)=O)NC(=O)[C@H](C(C)C)NC(=O)[C@H](CC2CCCCC2)NC(=O)[C@H](CCN)NC1=O", "note": "[Example 1393] ({CH2CO}-TY(Carboxymethyl)DWY(Carboxymethyl)[Bip]Y(Carboxymethyl)[NMeA][dL][Dab][Cha]VNC[Dab][AEEA][Aun]-OH; thioether N-14)", "pIC50": 7.48}, {"smiles": "Cc1cccc(C[C@@H]2NC(=O)[C@H](CC(=O)O)NC(=O)[C@H](Cc3ccc(OCC(=O)O)cc3)NC(=O)[C@H](CN)NC(=O)CSC[C@@H](C(=O)N[C@@H](CC(=O)O)C(=O)NCCCCCCCCCCC(=O)O)NC(=O)[C@H](CO)NC(=O)[C@H](C(C)C)NC(=O)[C@H](CC(C)C)NC(=O)[C@H](CC(N)=O)NC(=O)[C@@H](CC(C)C)NC(=O)[C@H](C)N(C)C(=O)[C@H](C(C)C)NC(=O)[C@H](Cc3ccc(-c4ccccc4)cc3)NC(=O)[C@H](CC(C)C)NC2=O)c1", "note": "[Example 1067] ({CH2CO}-[Dap]Y(Carboxymethyl)D[Phe(3-Me)]L[Bip]V[NMeA][dL]NLVSCD[Aun]-OH; thioether N-14)", "pIC50": 6.97}, {"smiles": "CC[C@@H](C)[C@@H]1NC(=O)[C@H](Cc2ccc(-c3ccccc3)cc2)NC(=O)[C@H](C(C)C)NC(=O)[C@H](Cc2c[nH]c3ccccc23)NC(=O)[C@H](CC(=O)O)NC(=O)[C@H](Cc2ccc(OCC(=O)O)cc2)NC(=O)[C@H](Cc2ccncc2)NC(=O)CSC[C@@H](C(=O)NCCOCCOCC(=O)N[C@@H](CCC(=O)NCCOCCOCC(=O)N[C@@H](CCC(=O)NCCOCCOCC(=O)N[C@@H](CCCN)C(=O)NCCCCCCCCCCC(=O)O)C(=O)O)C(=O)O)NC(=O)[C@H](CO)NC(=O)[C@H](C(C)C)NC(=O)[C@H](CC2CCCCC2)NC(=O)[C@H](CC(N)=O)NC(=O)[C@@H](CC(C)C)NC(=O)[C@H](C)N(C)C1=O", "note": "[Example 2019] ({CH2CO}-[4Pal]Y(Carboxymethyl)DWV[Bip][aIle][NMeA][dL]N[Cha]VSC[AEEA][γGlu][AEEA][γGlu][AEEA][Orn][Aun]-OH; thioether N-14)", "pIC50": 7.60}, {"smiles": "Cc1cccc(C[C@@H]2NC(=O)[C@H](CC(=O)O)NC(=O)[C@H](Cc3ccc(C(=O)O)cc3)NC(=O)[C@H](Cc3ccc(OCC(=O)O)cc3)NC(=O)CSC[C@@H](C(=O)NCC(=O)N[C@@H](CCC(=O)NCCOCCOCC(=O)N[C@@H](CCC(=O)O)C(=O)NCCCCCCCCCCC(=O)O)C(=O)O)NC(=O)[C@H](CO)NC(=O)[C@H](C(C)C)NC(=O)[C@H](CC(C)C)NC(=O)[C@H](CC(N)=O)NC(=O)[C@@H](CC(C)C)NC(=O)[C@H](C)N(C)C(=O)[C@H](C(C)C)NC(=O)[C@H](Cc3ccc(-c4ccccc4)cc3)NC(=O)[C@H](CC(C)C)NC2=O)c1", "note": "[Example 1015] ({CH2CO}-Y(Carboxymethyl)[Phe(4-COOH)]D[Phe(3-Me)]L[Bip]V[NMeA][dL]NLVSCG[γGlu][AEEA]E[Aun]-OH; thioether N-14)", "pIC50": 7.27}, {"smiles": "Cc1cccc(C[C@@H]2NC(=O)[C@H](CC(=O)O)NC(=O)[C@H](Cc3ccc(OCC(=O)O)cc3)NC(=O)[C@H](C(C)O)NC(=O)CSC[C@@H](C(=O)N(C)CCOCCOCC(=O)NCCCCCCCCCCC(=O)O)NC(=O)[C@H](C(C)C)NC(=O)[C@H](C(C)C)NC(=O)[C@H](CC3CCCCC3)NC(=O)[C@H](CCN)NC(=O)[C@@H](CC(C)C)NC(=O)[C@H](C)N(C)C(=O)[C@H](CCCNC(N)=O)NC(=O)[C@H](Cc3ccc(-c4ccccc4)cc3)NC(=O)[C@H](C(C)C)NC2=O)c1", "note": "(stereo partly drawn) [Example 2355] ({CH2CO}-[Thr(3ξ)]Y(Carboxymethyl)D[Phe(3-Me)]V[Bip][Cit][NMeA][dL][Dab][Cha]VVC[NMeAEEA][Aun]-OH; thioether N-14)", "pIC50": 7.34}, {"smiles": "Cc1cccc(C[C@@H]2NC(=O)[C@H](CC(=O)O)NC(=O)[C@H](Cc3ccc(O)cc3)NC(=O)[C@H](Cc3ccncc3)NC(=O)CSC[C@@H](C(=O)N[C@@H](CCN)C(=O)NCCCCCCCCCCC(=O)O)NC(=O)[C@H](CCCN)NC(=O)[C@H](C(C)C)NC(=O)[C@H](CC(C)C)NC(=O)[C@H](CCN)NC(=O)[C@@H](C)NC(=O)[C@H](C)N(C)C(=O)[C@H](C(C)C)NC(=O)[C@H](Cc3ccc(-c4ccccc4)cc3)NC(=O)[C@H](CC(C)C)NC2=O)c1", "note": "[Example 2201] ({CH2CO}-[4Pal]YD[Phe(3-Me)]L[Bip]V[NMeA][dA][Dab]LV[Orn]C[Dab][Aun]-OH; thioether N-14)", "pIC50": 7.82}]}, {"biological_target": "T1, PD-1/PD-L1 interaction (PE-labeled human PD-L1-Ig binding to Jurkat cell line over-expressing human PD-1)", "test": "Jurkat-PD-1 Cell Binding High-Content Screening Assay (CBA)", "settings": "PE-labeled PD-L1-Ig 20 nM final, Jurkat-hPD-1 cells; read-out: Jurkat HPD1 PDL1 IC50", "how_it_was_run": "as §1", "values": [{"smiles": "CCC(C)[C@@H]1NC(=O)[C@H](Cc2ccc(-c3ccccc3)cc2)NC(=O)[C@H](Cc2ccc(C(F)(F)F)cc2)NC(=O)[C@H](Cc2cccc(F)c2)NC(=O)[C@H](CC(=O)O)NC(=O)[C@H](Cc2ccc(C(=O)O)cc2)NC(=O)[C@H](Cc2cnc[nH]2)NC(=O)CSC[C@@H](C(=O)N[C@@H](CCN)C(=O)NCCCCCCCCCCC(=O)O)NC(=O)[C@H](CO)NC(=O)[C@H](C(C)(C)O)NC(=O)[C@H](CC2CCCCC2)NC(=O)[C@H](CCN)NC(=O)[C@@H](CC(C)C)NC(=O)[C@H](C)N(C)C1=O", "note": "(stereo partly drawn) [Example 2586] ({CH2CO}-H[Phe(4-COOH)]D[Phe(3-F)][Phe(4-CF3)][Bip][Ile(3ξ)][NMeA][dL][Dab][Cha][Val(3-OH)]SC[Dab][Aun]-OH; thioether N-14)", "pIC50": 7.85}, {"smiles": "CC(C)C[C@H]1NC(=O)[C@H](C)N(C)C(=O)[C@H](CCCNC(=N)N)NC(=O)[C@H](Cc2ccc(-c3ccccc3)cc2)NC(=O)[C@H](Cc2ccc(C(=O)O)cc2)NC(=O)[C@H](Cc2cccc(C(F)(F)F)c2)NC(=O)[C@H](CC(=O)O)NC(=O)[C@H](Cc2ccc(OCC(=O)O)cc2)NC(=O)[C@H](C(C)O)NC(=O)CSC[C@@H](C(=O)N[C@H](CC(N)=O)C(=O)NCCCCCCCCCCCCC(=O)O)NC(=O)[C@H](CO)NC(=O)[C@H](C(C)(C)O)NC(=O)[C@H](CC2CCCCC2)NC(=O)[C@H](CCN)NC1=O", "note": "(stereo partly drawn) [Example 2645] ({CH2CO}-[Thr(3ξ)]Y(Carboxymethyl)D[Phe(3-CF3)][Phe(4-COOH)][Bip]R[NMeA][dL][Dab][Cha][Val(3-OH)]SC[dN]-{NH(CH2)12COOH}; thioether N-14)", "pIC50": 6.94}, {"smiles": "CCC(C)[C@@H]1NC(=O)[C@H](Cc2ccc(-c3ccccc3)cc2)NC(=O)[C@H](CC(C)C)NC(=O)[C@H](Cc2c[nH]c3ccccc23)NC(=O)[C@H](CC(=O)O)NC(=O)[C@H](Cc2ccc(OCC(=O)O)cc2)NC(=O)[C@H](C(C)O)NC(=O)CSC[C@@H](C(=O)N[C@@H](CCN)C(=O)NCCOCCOCC(=O)NCCCCCCCCCCC(=O)O)NC(=O)[C@H](CCC(=O)O)NC(=O)[C@H](C(C)(C)O)NC(=O)[C@H](CC2CCCCC2)NC(=O)[C@H](CCN)NC(=O)[C@@H](CC(C)C)NC(=O)[C@H](C)N(C)C1=O", "note": "(stereo partly drawn) [Example 2509] ({CH2CO}-[Thr(3ξ)]Y(Carboxymethyl)DWL[Bip][Ile(3ξ)][NMeA][dL][Dab][Cha][Val(3-OH)]EC[Dab][AEEA][Aun]-OH; thioether N-14)", "pIC50": 7.89}]}]}
